From patent US20200377459A1, “CHARGED ION CHANNEL BLOCKERS AND METHODS FOR USE” (President and Fellows of Harvard College, priority 2015, published 2020)
Entries after “also recorded” stand apart in the source; their conditions may differ.

Assays:
[1] = biological target: T1, human Nav1.7 channels (Homo sapiens, UniProt Q15858); test: Whole-cell patch clamp, use-dependent block of sodium current, drug applied intracellularly or externally; format: cell-based
T1 construct: expressed in transfected cells
Protocol: Whole-cell recordings were made of currents carried by voltage-activated channels in HEK293 cells stably expressing human Nav1.7 channels. Recordings were made using patch pipettes with resistances of 2-3.5 MQ when filled with internal solution, consisting of 61 mM CsF, 61 mM CsCl, 9 mM NaCl, 1.8 mM MgCl2, 9 mM EGTA, 14 mM creatine phosphate (tris salt), 4 mM MgATP, and 0.3 mM GTP (tris salt), 9 mM HEPES, pH adjusted to 7.2 with CsOH. The shank of the electrode was wrapped with Parafilm in order to reduce capacitance and allow optimal series resistance compensation without oscillation. Seals were obtained and the whole-cell configuration established with cells in Tyrode's solution (155 mM NaCl, 3.5 mM KCl, 1.5 mM CaCl2), 1 mM MgCl2, 10 mM HEPES, 10 mM glucose, pH adjusted to 7.4 with NaOH) with 10 mM TEACl. To ensure complete dialysis with pipette solution, recordings began after 5 to 10 min after establishment of the whole-cell configuration.
Currents were recorded at room temperature (21-23° C.) with an Axopatch 200 amplifier and filtered at 5 kHz with a low-pass Bessel filter. The amplifier was tuned for partial compensation of series resistance (typically 70-80% of a total series resistance of 4-10 MO). Currents were digitized using a Digidata 1322A data acquisition interface controlled by pClamp9.2 software (Axon Instruments) and analyzed using programs written in Igor Pro 4.0 (Wavemetrics, Lake Oswego, Oreg.). Currents were corrected for linear capacitative and leak currents determined using 5 mV hyperpolarizations delivered from the resting potential (usually −80 or −100 mV) and then appropriately scaled and subtracted.
Sodium currents were evoked by 30-msec depolarizations from −100 mV to −20 mV. To assay use-dependent block, pulses were delivered at series of increasing rates: 0.05 Hz for 1-min, 0.33 Hz for 1-min, 1 Hz for 1-min, 3 Hz for 1-min, 5 Hz for 30 seconds, 10 Hz for 30 seconds, with 1 minute rest between each series of pulses. After the series of pulses to induce use-dependent block, the time course of recovery was followed using pulses delivered at 01. Hz (2-min) and 0.05 Hz (1-min).
To induce use-dependent block, the depolarizations were delivered by series of increasing rates: 0.05 Hz for 1-min, 0.33 Hz for 1-min, 1 Hz for 1-min, 3 Hz for 1-min, 5 Hz for 30 seconds, 10 Hz for 30 seconds, with 1 minute rest between each series of pulses. After the series of pulses to induce use-dependent block, the time course of recovery was followed using pulses delivered at 01. Hz (2-min) and 0.05 Hz (1-min). Peak sodium current was plotted as a function of experimental time (1-min per division on the time axis).

[2] = tested on: CFA-induced thermal hyperalgesia; test: CFA-induced thermal hyperalgesia (Hargreaves radiant heat, hind paw); format: in vivo; settings: mice, intraplantar co-injection with CFA, 1%
Protocol: FIGS. 2A-2D show reversal of CFA-induced thermal hyperalgesia by charged sodium channel blockers. FIGS. 2A and 2C show time course (0, 1, 6, and 24 hours) of changes in thermal nociceptive sensitivity measured as response latency (seconds) to a constant radiant heat source applied to the plantar surface of hind paw in mice co-treated with 20 μL (injected in the left hindpaw) of CFA (50% emulsion) and saline, and when the CFA was co-applied with QX-314 (1%, hollow square), N-ethyl etidocaine (Compound 21, 1%; dark square), or ACS8180-3B (Compound 3, 1%; solid triangle). FIGS. 2B and 2D show the nociceptive heat pain response time before CFA treatment and after treatment with the different compounds 1 hour post CFA injection. The data are means±SEM of 8-16 mice per group. The statistical comparison with pre-CFA (*) and with CFA+Vehicle (+) is indicated by +P<0.05; ++P<0.01 and +++,*** P<0.001. All procedures were approved by the Institutional Animal Care and Use Committees. Mice and rats were housed in standard environmental conditions (12-h light/dark cycle; 23° C.; food and water ad libitum) at facilities accredited by the Association for Assessment and Accreditation of Laboratory Animal Care. 8-week old male BALB/c (stock number: 001026) and C57BL/6J (stock number 000664) mice were purchased from Jackson Laboratory and respectively used in allergic airway inflammation (FIG. 5) and pain hypersensitivity model (FIGS. 2A-2D). 6-week old male Sprague-Dawley (stock number: 400) rats, 150±25 grams, were purchased from Charles River laboratory and used to assess pain hypersensitivity (FIG. 3). The compounds were injected in the plantar surface of each animal's right hind paw in 10 μl (mice) or 50 μl (rats) volume of 1:1 emulsion of Complete Freund's Adjuvant (CFA). […] On the 4th day, their thermal nociceptive threshold was evaluated. […] Impact of treatment was analyzed 1 h prior and 1, 3, 6 and 24 h post-treatment. […] With each reading the apparatus was set with a cut-off time of 32 s.

T1 sequence (Q15858 whole entry): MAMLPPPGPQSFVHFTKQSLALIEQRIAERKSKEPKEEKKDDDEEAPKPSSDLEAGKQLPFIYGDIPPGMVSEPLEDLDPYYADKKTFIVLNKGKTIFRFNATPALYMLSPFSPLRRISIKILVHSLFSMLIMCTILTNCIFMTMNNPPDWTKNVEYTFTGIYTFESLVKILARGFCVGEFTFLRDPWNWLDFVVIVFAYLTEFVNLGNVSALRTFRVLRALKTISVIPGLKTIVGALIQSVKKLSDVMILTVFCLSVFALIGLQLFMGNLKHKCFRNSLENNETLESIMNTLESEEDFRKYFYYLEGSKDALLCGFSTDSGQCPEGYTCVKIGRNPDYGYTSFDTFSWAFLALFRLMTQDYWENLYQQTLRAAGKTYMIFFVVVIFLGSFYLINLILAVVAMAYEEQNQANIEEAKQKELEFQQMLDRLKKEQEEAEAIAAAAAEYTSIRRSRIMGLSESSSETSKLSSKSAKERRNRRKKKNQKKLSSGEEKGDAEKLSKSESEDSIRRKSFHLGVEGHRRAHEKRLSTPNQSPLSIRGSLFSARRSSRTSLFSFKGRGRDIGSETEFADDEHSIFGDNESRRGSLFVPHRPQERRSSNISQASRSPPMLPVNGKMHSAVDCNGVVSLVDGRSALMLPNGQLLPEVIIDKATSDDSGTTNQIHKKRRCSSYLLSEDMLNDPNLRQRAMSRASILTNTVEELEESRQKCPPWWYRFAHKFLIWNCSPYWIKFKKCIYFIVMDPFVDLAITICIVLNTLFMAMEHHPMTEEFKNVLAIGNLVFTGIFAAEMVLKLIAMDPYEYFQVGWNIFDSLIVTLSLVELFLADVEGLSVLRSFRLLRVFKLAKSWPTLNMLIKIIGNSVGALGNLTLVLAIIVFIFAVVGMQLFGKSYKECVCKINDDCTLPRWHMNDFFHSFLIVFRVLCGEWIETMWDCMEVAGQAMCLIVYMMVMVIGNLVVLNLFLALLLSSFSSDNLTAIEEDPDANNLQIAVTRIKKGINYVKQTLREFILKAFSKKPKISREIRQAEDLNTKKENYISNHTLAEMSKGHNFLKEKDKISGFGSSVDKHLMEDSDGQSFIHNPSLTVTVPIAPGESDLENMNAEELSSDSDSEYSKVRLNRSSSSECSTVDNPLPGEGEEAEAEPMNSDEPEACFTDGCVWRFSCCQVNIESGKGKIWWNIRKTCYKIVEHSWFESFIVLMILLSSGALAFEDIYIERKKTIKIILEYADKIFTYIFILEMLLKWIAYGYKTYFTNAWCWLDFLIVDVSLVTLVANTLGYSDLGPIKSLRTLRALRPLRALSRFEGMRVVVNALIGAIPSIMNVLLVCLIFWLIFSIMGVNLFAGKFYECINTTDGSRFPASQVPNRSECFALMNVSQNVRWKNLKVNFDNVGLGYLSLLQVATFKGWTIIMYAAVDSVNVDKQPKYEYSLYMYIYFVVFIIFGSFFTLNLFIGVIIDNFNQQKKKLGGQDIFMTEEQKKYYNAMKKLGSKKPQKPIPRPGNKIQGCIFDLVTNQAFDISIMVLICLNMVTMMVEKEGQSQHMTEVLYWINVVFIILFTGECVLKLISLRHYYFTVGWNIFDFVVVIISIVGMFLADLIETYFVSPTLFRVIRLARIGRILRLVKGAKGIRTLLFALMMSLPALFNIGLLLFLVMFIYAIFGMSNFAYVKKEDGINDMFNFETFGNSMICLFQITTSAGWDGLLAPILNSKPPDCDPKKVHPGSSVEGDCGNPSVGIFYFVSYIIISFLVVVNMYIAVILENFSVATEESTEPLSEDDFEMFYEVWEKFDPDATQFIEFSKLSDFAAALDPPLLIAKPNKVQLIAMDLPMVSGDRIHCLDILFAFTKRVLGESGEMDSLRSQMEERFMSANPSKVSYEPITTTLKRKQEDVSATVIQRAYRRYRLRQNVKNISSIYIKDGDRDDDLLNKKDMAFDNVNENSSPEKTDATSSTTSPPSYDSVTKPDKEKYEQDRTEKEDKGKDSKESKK

Row | inhibition at 100 µM [1] | SMILES | reversal of CFA-induced thermal hyperalgesia [2] | use dependent accumulation of block ([1]; 100 micromolar inside cell, stimulation frequencies from 1 to 10 Hz)
1 | 97% | CCC[N+](CC)(CC)C(CC)C(=O)Nc1c(C)cccc1C (stereo not shown) [Compound 21, N-ethyl etidocaine] | reversed; also recorded: potent blockade | 
2 |  | CC[N+](CC)(CC)CC(=O)Nc1c(C)cccc1C [QX-314, reference compound] | reversed | strong use dependent accumulation of block
